Measured values from patent publication US11572590B2, “Methods for evaluating tumor cell spheroids using 3D microfluidic cell culture device” (Dana-Farber Cancer Institute, Inc., priority 2017, dated 2023).
Where two headings read alike, the source gives them in different places.

Columns and labels:
Assay in all cases: SelectScreen Kinase Profiling, single point inhibition and IC50 for off-target kinases
Assay type in all cases: biochemical
[1] = molecular target: T1, off-target kinases (Homo sapiens, UniProt O43781); settings: DYRK3, ZLYTE, ATP Km app
T1 sequence (O43781 1-588): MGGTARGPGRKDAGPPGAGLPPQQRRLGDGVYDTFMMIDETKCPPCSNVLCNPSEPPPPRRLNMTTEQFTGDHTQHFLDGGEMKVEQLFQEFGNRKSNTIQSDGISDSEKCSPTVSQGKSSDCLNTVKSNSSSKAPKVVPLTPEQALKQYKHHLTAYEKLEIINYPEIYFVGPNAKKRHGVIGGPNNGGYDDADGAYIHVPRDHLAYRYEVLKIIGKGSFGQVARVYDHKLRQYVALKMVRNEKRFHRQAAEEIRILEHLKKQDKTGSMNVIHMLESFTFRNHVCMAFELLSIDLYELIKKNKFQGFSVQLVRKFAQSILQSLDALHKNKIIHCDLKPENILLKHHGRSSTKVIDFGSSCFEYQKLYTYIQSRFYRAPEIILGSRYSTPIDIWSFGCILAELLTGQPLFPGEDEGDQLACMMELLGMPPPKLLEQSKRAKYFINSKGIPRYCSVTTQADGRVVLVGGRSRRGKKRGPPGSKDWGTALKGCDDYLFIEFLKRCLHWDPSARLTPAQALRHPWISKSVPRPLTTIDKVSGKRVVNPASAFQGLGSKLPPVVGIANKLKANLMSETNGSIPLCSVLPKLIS

[2] = molecular target: off-target kinases (Homo sapiens, UniProt O60674, V617F); settings: JAK2 JH1 JH2 V617F, ATP Km app, ZLYTE
[3] = molecular target: T2, off-target kinases (Homo sapiens, UniProt O94768); settings: STK17B (DRAK2), LanthaScreen Binding
T2 sequence (O94768 1-372): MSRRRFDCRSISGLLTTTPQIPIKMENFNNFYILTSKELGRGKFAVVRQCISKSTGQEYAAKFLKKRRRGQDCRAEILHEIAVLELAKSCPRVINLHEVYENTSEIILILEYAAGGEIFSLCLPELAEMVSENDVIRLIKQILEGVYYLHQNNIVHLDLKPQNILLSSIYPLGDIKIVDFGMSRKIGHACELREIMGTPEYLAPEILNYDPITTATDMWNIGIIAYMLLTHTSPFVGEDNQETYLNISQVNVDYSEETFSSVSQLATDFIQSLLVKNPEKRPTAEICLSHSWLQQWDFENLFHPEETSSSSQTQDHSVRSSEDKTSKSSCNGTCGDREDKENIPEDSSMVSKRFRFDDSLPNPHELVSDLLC

[4] = molecular target: off-target kinases (Homo sapiens, UniProt P04629); settings: NTRK1 (TRKA), ZLYTE, ATP Km app
[5] = molecular target: off-target kinases (Homo sapiens, UniProt P10721); settings: KIT, ZLYTE, ATP Km app
[6] = molecular target: off-target kinases (Homo sapiens, UniProt Q13177); settings: PAK2 (PAK65), ZLYTE, ATP Km app
[7] = molecular target: off-target kinases (Homo sapiens, UniProt Q9Y243); settings: AKT3 (PKB gamma), ZLYTE, ATP Km app
Sequence of off-target kinases (Homo sapiens, UniProt Q9Y243) (Q9Y243 whole entry): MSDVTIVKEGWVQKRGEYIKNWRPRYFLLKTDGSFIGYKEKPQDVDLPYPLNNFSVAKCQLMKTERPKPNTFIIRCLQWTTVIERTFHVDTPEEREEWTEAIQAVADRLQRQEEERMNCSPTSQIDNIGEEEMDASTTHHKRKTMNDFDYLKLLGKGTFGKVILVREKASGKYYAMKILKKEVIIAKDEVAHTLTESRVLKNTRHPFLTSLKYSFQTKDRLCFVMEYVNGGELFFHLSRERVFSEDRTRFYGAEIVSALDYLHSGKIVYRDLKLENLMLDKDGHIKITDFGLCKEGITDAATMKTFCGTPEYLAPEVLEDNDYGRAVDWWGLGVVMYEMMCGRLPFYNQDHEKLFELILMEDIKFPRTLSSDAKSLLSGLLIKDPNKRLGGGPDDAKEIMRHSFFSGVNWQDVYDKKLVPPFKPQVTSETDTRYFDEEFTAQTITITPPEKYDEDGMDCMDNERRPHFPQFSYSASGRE

Sequence of off-target kinases (Homo sapiens, UniProt P04629) (P04629 33-796): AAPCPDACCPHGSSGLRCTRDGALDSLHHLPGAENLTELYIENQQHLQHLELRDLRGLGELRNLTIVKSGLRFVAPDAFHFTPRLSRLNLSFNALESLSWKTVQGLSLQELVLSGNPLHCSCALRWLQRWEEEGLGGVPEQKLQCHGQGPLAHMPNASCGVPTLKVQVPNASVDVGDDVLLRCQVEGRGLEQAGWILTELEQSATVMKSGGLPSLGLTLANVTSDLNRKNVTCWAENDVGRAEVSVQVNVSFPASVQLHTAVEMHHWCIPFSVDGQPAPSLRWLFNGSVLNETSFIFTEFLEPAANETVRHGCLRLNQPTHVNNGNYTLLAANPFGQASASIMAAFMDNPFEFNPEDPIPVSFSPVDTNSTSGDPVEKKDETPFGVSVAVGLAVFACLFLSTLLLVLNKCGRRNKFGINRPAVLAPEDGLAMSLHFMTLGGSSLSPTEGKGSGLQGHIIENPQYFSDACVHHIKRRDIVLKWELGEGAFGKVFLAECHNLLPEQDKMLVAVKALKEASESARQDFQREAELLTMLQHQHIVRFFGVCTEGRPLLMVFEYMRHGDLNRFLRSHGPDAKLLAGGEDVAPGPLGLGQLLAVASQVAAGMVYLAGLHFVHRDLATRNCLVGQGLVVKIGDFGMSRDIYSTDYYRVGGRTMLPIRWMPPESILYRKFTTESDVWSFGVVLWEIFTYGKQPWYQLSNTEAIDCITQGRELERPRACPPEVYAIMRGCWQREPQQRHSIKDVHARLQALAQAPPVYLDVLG
Sequence of off-target kinases (Homo sapiens, UniProt Q13177) (Q13177 whole entry): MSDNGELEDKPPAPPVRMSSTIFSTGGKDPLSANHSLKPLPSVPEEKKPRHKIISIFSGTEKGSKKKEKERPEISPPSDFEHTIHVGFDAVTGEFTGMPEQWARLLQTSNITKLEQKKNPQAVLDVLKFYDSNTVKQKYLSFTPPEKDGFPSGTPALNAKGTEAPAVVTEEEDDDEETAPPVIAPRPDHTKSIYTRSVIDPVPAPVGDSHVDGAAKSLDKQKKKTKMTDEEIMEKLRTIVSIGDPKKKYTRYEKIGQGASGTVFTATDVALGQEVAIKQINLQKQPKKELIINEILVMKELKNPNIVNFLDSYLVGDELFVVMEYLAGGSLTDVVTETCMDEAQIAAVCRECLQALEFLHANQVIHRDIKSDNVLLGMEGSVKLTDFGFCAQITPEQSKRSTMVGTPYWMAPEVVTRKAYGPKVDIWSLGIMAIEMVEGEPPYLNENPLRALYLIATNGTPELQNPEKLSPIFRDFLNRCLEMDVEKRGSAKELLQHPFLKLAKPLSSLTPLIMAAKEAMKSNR
Sequence of off-target kinases (Homo sapiens, UniProt O60674, V617F) (O60674 whole entry V617F): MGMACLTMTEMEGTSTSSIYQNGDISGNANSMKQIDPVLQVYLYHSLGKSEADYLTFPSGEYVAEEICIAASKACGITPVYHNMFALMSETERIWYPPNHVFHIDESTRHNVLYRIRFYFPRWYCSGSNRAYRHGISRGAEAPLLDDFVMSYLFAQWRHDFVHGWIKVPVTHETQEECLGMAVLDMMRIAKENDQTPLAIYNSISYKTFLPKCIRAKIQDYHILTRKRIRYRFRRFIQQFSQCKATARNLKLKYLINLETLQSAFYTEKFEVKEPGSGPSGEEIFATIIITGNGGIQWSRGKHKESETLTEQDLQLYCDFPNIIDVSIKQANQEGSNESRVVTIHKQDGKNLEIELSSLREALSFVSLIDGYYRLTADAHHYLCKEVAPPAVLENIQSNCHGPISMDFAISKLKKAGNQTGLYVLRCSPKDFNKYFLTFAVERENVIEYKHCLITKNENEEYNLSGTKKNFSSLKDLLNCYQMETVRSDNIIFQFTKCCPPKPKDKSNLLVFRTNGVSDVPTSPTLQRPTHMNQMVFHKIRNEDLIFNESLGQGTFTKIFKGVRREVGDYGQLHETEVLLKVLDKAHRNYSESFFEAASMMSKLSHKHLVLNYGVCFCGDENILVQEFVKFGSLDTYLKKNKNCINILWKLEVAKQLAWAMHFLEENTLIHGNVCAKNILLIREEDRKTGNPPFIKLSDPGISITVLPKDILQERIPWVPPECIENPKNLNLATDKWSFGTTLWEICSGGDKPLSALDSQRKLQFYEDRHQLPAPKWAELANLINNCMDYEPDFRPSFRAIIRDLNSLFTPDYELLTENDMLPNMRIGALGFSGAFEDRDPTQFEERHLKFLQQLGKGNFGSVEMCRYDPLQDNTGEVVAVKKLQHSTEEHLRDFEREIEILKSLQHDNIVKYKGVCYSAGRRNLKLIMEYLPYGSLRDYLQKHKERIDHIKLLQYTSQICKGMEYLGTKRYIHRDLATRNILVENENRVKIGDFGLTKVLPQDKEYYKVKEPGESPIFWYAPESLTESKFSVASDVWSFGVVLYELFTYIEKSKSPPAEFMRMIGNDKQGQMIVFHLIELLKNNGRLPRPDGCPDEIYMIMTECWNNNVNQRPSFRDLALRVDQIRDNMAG
Sequence of off-target kinases (Homo sapiens, UniProt P10721) (P10721 26-976): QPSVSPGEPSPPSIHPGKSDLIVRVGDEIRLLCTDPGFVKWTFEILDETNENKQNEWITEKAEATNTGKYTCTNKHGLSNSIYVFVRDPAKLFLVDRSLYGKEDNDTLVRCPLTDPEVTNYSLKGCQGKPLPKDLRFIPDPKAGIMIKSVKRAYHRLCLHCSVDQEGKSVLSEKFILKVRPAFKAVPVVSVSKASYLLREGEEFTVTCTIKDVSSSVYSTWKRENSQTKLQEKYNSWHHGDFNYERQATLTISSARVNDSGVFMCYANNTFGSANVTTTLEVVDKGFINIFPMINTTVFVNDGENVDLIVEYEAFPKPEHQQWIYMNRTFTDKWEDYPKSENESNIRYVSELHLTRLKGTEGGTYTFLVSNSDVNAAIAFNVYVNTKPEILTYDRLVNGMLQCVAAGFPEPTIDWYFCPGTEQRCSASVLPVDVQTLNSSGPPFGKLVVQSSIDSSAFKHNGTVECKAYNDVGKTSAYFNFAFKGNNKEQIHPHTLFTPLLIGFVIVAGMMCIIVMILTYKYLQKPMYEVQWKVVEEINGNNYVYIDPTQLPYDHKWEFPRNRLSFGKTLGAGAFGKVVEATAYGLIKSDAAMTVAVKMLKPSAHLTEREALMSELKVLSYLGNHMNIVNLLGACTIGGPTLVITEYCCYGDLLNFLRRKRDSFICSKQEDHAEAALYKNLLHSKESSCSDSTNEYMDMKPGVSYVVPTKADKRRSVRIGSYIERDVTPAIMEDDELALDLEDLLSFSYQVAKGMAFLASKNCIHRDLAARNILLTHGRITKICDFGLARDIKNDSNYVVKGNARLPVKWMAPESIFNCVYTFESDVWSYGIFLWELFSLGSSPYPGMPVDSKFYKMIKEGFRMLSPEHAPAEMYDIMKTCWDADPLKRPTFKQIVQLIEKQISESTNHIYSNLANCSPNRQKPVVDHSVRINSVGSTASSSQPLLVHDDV

N#Cc1cc(-c2ncnc(Nc3ccc(N4CCN(C5COC5)CC4)cc3)n2)ccc1OC1CCOCC1 [Compound 1, 5-(4-((4-(4-(oxetan-3-yl)piperazin-1-yl)phenyl)amino)-1,3,5-triazin-2-yl)-2-((tetrahydro-2H-pyran-4-yl)oxy)benzonitrile]
inhibition ([1]; read-out: % Inhibition 1): 26%
inhibition ([1]; read-out: % Inhibition 2): 24%
inhibition ([1]; read-out: % Inhibition Avg): 25%
inhibition ([2]; read-out: % Inhibition 1): 54%
inhibition ([2]; read-out: % Inhibition 2): 50%
inhibition ([2]; read-out: % Inhibition Avg): 52%
inhibition ([3]; read-out: % Inhibition 1): 94%
inhibition ([3]; read-out: % Inhibition 2): 84%
inhibition ([3]; read-out: % Inhibition Avg): 89%
inhibition ([4]; read-out: % Inhibition 1): 16%
inhibition ([4]; read-out: % Inhibition 2): 20%
inhibition ([4]; read-out: % Inhibition Avg): 18%
inhibition ([5]; read-out: % Inhibition 1): 1%
inhibition ([5]; read-out: % Inhibition 2): 5%
inhibition ([5]; read-out: % Inhibition Avg): 3%
inhibition ([6]; read-out: % Inhibition 1): 6%
inhibition ([6]; read-out: % Inhibition 2): -1%
inhibition ([6]; read-out: % Inhibition Avg): 3%
inhibition ([7]; read-out: % Inhibition 1): 3%
inhibition ([7]; read-out: % Inhibition 2): 1%
inhibition ([7]; read-out: % Inhibition Avg): 2%
